Assay: gradient 5% acetonitrile 3 min, to 50% in 2 min, to 85% in 15 min, held 3 min, 100 µL/min
Conditions: column: Zorbax Extend-C18 2.1 x 50 mm; eluents: water / acetonitrile, 0.1% formic acid
Summary of the method: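 Using water and acetonitrile that each contained 0.1% formic acid, mixtures of ~100 pure standards were separated at 100 μL/min on a Zorbax Extend-C18 column (2.1 × 50 mm, 1.8 μm). The HPLC fed a quadrupole time-of-flight mass spectrometer working in positive and negative ionization mode, with dead and dwell volumes of 40 μL and 900 μL. Data were acquired over 3 months. Retention time was read from computationally picked adduct peaks after manual inspection of each.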

Row | SMILES | RP-LC retention time [s]
1 | O=C(Nc1ccccc1F)C1CCN(C(=O)c2ncn3c2COC(c2ccc(F)cc2)C3)CC1 (stereo unspecified) | 738
2 | Cc1nc(-c2cccc(C(=O)N3CCCc4ccccc43)c2)no1 | 900
3 | O=C(NC1(c2nc(-c3cnccn3)no2)CCCCC1)c1cc2cc(Cl)ccc2[nH]1 | 916
4 | Cc1cnc(C(=O)NCC2Cn3cccc3C(=O)N2C)cn1 (stereo unspecified) | 595
5 | CCN1CCCn2cc(S(=O)(=O)N3CCN(c4ccccn4)CC3)cc2C1=O | 577
6 | Cc1cccc(OCC(=O)Nc2nnc(C3CC(=O)N(c4ccccc4)C3)o2)c1C (stereo unspecified) | 726
7 | COCCNC(=O)c1c2c(cn(-c3ccc(Cl)cc3)c1=O)C(=O)CC(C)(C)C2 | 856
8 | Cc1cc(NC(=O)CSc2nnc(CNC(=O)c3c(F)cccc3Cl)o2)no1 | 657
9 | CCc1noc(NC(C)=O)c1-c1ccc(C)c(S(=O)(=O)Nc2ccccc2Cl)c1 | 829
10 | COCC1(O)CCOC2(CCN(Cc3ccc(C)c(C)c3)CC2)C1 (stereo unspecified) | 627
11 | COc1cc(Cl)c(CC2C(=O)Nc3ccccc32)cc1OC (stereo unspecified) | 900
12 | O=C(NCCN1CCN(Cc2ccccc2)CC1)c1cc(=O)n2c(nc3ccccc32)s1 | 649
13 | COc1cc2c(cc1O)CCC1C2CC[C@@]2(C)C1CC[C@@H]2O (stereo partly specified) | 836
14 | Cc1ccc(-c2nc(-c3ccc(-c4noc(CNC(=O)c5ccco5)n4)cc3)cs2)s1 | 1130
15 | COc1ccc(Cl)cc1C(=O)NCCOc1ccc(F)cc1 | 925
16 | Cc1cccc(CN2CCN(C3CCN(C(=O)Nc4ccc5c(c4)OCO5)CC3)C2=O)c1 | 836
17 | O=c1n(Cc2ccccc2Cl)nc2c(S(=O)(=O)N3CCCC3)cccn12 | 853
18 | O=C(NC(Cc1ccccc1)c1nnc(N2CCCCCC2)o1)C1CC1 (stereo unspecified) | 788
19 | COc1ccc(N2CCN(C(=O)CCC(=O)N3CCCn4nc(-c5cccn5C)cc43)CC2)cc1 | 711
20 | Cc1ccn2cc(-c3ccc(NS(=O)(=O)c4ccc5cccc6c5c4CC6)cc3)nc2n1 | 748
21 | Cc1ccc(N2C(=O)C3N=NN(Cc4nc(-c5cccc(C(F)(F)F)c5)no4)C3C2=O)cc1Cl (stereo unspecified) | 1180
22 | CCCN(C(=O)c1ccccc1)c1nc(-c2ccccc2)cs1 | 1310

Row | SMILES | RP-LC retention time [s]
23 | O=C(C1CCCN(c2ncnc3c2nc2n3CCCCC2)C1)N1CCCc2ccccc21 (stereo unspecified) | 888
24 | CC(NC(=O)C1(c2ccc(NS(C)(=O)=O)cc2)CCCCC1)c1ccccc1 (stereo unspecified) | 926
25 | Cc1ccc(NC(=O)Nc2ccc3nc(N4CCN(C)CC4)cc(C)c3c2)cc1C | 614
26 | Cc1nc(Cn2cccc2C(=O)N2CCc3ccccc32)no1 | 885
27 | CS(=O)(=O)c1ccc(-c2ccc(NC(=O)c3cccs3)cc2)nn1 | 698
28 | O=C(NCc1cc(F)ccc1F)C1CCN(C(=O)c2ncn3c2COC(c2ccc(F)cc2)C3)CC1 (stereo unspecified) | 802
29 | Cc1nc(-c2ccccc2)cc2nn(CC(=O)N3CCCc4ccccc43)c(=O)n12 | 1010
30 | CCNC(=O)c1n[nH]c2c1CCCC2 | 641
31 | CCOC(=O)c1ccc(Nc2c(-c3ccc(SC)cc3)nc3cnccn23)cc1 | 943
32 | O=C(CSc1ccc(N2CCCC(C(=O)NC3CC3)C2)nn1)Nc1ccc(Br)cc1 (stereo unspecified) | 691
33 | Nc1ccc(Cl)cc1C(=O)c1ccccc1Cl | 1140
34 | COC[C@@H]1CN(c2cnccn2)C[C@H]1C(=O)NCC#N | 546
35 | O=C1COc2ccc(NC(=O)c3cc(C4CC4)n(C4CCS(=O)(=O)C4)n3)cc2N1 (stereo unspecified) | 652
36 | COc1ccc(C(=O)N2c3nc(-c4ccccc4)nn3C3(CCCCC3)[C@@H]3CCCC[C@@H]32)cc1OC | 1420
37 | CCOc1cc(=O)n2c(c1C(=O)Nc1ccc(C(=O)OC)cc1)CCCC2 | 707
38 | COc1ccc(C2C(=O)N(CCc3ccccc3)CC(=O)N2Cc2cccs2)cc1 (stereo unspecified) | 964
39 | O=C(Cc1cccc(F)c1)N1CCCC1c1nc(-c2ccc(F)cc2)no1 (stereo unspecified) | 1010
40 | Cc1cc2c(c(=O)n(-c3ccc(F)cc3)c(=O)n2CC(=O)Nc2ccc(Br)cc2)n1C | 932
41 | CCCN1C(=O)c2ccccc2C(C(=O)N2CCOCC2)C1c1cc(OC)c(OC)c(OC)c1 (stereo unspecified) | 684
42 | COc1ccc(C(C)NC(=O)Cn2c(=O)n(-c3ccccc3)c3ncccc32)cc1OC (stereo unspecified) | 741
43 | Fc1cc(F)cc(-c2nnc(Cc3nc(-c4ccc(Cl)cc4)no3)o2)c1 | 1130
44 | Cc1c(C(=O)N2CC(C)CC(C)C2)sc2ncn(CC(=O)N3CCC(C)CC3)c(=O)c12 (stereo unspecified) | 891

Row | SMILES | RP-LC retention time [s]
45 | O=C(C1CCCN(c2cnc3nccnc3c2)C1)N1CCC(N2CCCCC2)CC1 (stereo unspecified) | 557
46 | CCc1nnc2ccc(S(=O)(=O)Nc3ccc(F)cc3)cn12 | 707
47 | O=C(c1cscn1)N1CCc2nn(CC3CC3)c(=O)n2CC1 | 610
48 | COc1ccc(-c2csc(NC(=O)CS(=O)(=O)c3ccc(Cl)cc3)n2)cc1OC | 926
49 | COC(=O)c1ccc(-c2nc3cnccn3c2Nc2ccc(Cl)cc2)cc1 | 953
50 | CCOc1cc(=O)n2c(c1C(=O)Nc1ccc(Cl)cc1F)CCCC2 | 806
51 | CCN(CC)c1ccc(NC(=O)C2CCCN(c3ccc(=O)n(-c4cccc(Cl)c4)n3)C2)c(C)c1 (stereo unspecified) | 662
52 | Cc1cc(C(=O)Nc2ccc(-c3nc4ccccc4o3)cc2)no1 | 857
53 | Cc1cc(C)n2nc(-c3ccccc3)c(C)c2n1 | 906
54 | CC1=C(c2ccccc2)S(=O)(=O)N=C1N1CCCN(C(=O)Nc2ccccc2F)CC1 | 811
55 | COc1ccc(NC(=O)N2CCc3cn(C)c4cccc(c34)C2)cc1 | 844
56 | Cc1cccc(C2CCCN2C(=O)c2nc3nc(C)cc(C(F)F)n3n2)c1 (stereo unspecified) | 841
57 | CCN1C(=O)COc2ccc(-c3noc(Cc4ccc(OC)cc4)n3)cc21 | 1000
58 | CCSc1ccccc1C(=O)NCCCn1cccc1 | 791
59 | O=C(COc1ccc(Cl)cc1)N1CCN(c2cc(-c3cccs3)[nH]n2)CC1 | 864
60 | O=C(c1cccnc1N1CCNC(c2ccccc2)C1)N1CCN(c2ncccn2)CC1 (stereo unspecified) | 604
61 | Cc1cc([N+](=O)[O-])ccc1NC(=O)c1ccc(-n2cnnn2)cc1 | 803
62 | Cc1cc(-c2nnc(NC(=O)c3ccc4c(c3)OCCO4)o2)n(C)n1 | 655
63 | O=C(COc1ccc(F)cc1)N1CCN(C(=O)c2nnn3c2COC(c2ccc(Cl)cc2)C3)CC1 (stereo unspecified) | 937
64 | COCCCNC(=O)C1CCCN(c2cnc3nccnc3c2)C1 (stereo unspecified) | 602
65 | C[C@H]1CN(C(=O)Nc2ccc(Cl)cc2)C[C@@H]1c1nc(-c2cccnc2)no1 | 863
66 | CCOC(=O)C1CCN(Cc2nc(-c3ccc(N4CCCCCC4)nc3)no2)CC1 | 600

Source: the METLIN SMRT retention time set (Domingo-Almenara et al. 2019)
